Experimental data from patent US20240368145A1, “METHODS FOR TREATING CANCER” (IMMUNIC AG, priority 2021, published 2024).
pIC50: −log10 of the molar value.

Legend:
IL-17A = assay: Cytokine assay, human PBMC stimulated with PHA: IL-17A; type: cell-based; settings: PHA-activated, 48 hours, read-out: IL-17A inhibition (IC50 range)
Method: (§1) Peripheral blood mononuclear cells (PBMC) from healthy human donors were purified using Accuspin™ System-Histopaque-1077 (Sigma) according to the protocol recommended by the manufacturer. Purified PBMC were then washed twice with phosphate-buffered saline (PBS) and resuspended in RPMI1640 culture medium supplemented with 10% dialyzed heat inactivated fetal calf serum, 1.5 mM L-glutamine, 100 U penicillin/mL and […] streptomycin/mL (all from PAN Biotech, Aidenbach, Germany). For stimulation, PBMC were seeded at 1×10^5 cells/well, activated with 2 gg/mL phytohaemagglutinin (PHA, Sigma) and incubated with the test compounds for 48 hours. IL-17A, IL-17F and INFγ were then determined in the culture supernatant using a Luminex BioPlex system, following the manufacturer's instructions (BioRad, Munich, Germany). To determine the IC50, compounds were titrated semilogarithmically.
(§2) Cytokines were determined in the aforementioned culture supernatant using the following methods: IL-17A was measured using the human homodimer IL-17A ELISA Ready Set Go Kit from cBioscience (Frankfurt, Germany); IL-17F using the human IL-17F ELI-Pair from Holzel Diagnostica GmbH (K51n, Germany); and IFNγ using the OptEIA human IFN-g ELISA from BD Bioscience (Heidelberg, Germany), all following the manufacturer's instructions.

IFNγ = assay: Cytokine assay, human PBMC stimulated with PHA: IFNγ; type: cell-based; settings: PHA-activated, 48 hours, read-out: IFNγ inhibition (IC50 range)
Method: as §1, §2

[1] = tested on: prostate cancer cell line 22RV1; assay: Oncolead sulforhodamin B growth inhibition, 22RV1; type: cell-based; settings: Homo sapiens, sulforhodamin B assay, 72 and 120 h treatment, read-out: GI50 range 22RV1
Method: (§3) Cell growth was assessed by measuring protein content using sulforhodamin B. Growth inhibition was calculated by (TCMD−T0)/TNCT72h−T0)*100% with TCMD is the tumor growth at 72 h with the respective compound concentration. To is the protein content of the cell line before treatment and TNCT72h is the tumor growth of the DMSO control.

[2] = tested on: prostate cancer cell line VCaP; assay: Oncolead sulforhodamin B growth inhibition, VCaP; type: cell-based; settings: for GI50: Homo sapiens, VCaP, sulforhodamin B assay, 72 and 120 h treatment, read-out: GI50 range VCAP; for effect on growth of VCaP: highest dose (30 μM)
Method: as §3

[3] = tested on: prostate cancer cell line LNCAP; assay: Oncolead sulforhodamin B growth inhibition, LNCAP; type: cell-based; settings: Homo sapiens, sulforhodamin B assay, 72 and 120 h treatment, read-out: GI50 range LNCAP
Method: as §3

[4] = tested on: prostate cancer cell line 22RV1, DU145, LNCAP, PC3 and VCaP; assay: Oncolead profiling in a panel of 5 prostate cancer cell lines (summary); type: cell-based; settings: for inhibition at 30 µM: highest concentration (30 μM), VCaP cell line not included, read-out: average growth inhibition; for growth inhibition: in 4 of 5 prostate cancer cell lines
Method: as §3

[5] = tested on: full length AR (AR-FL) mRNA; assay: Androgen receptor RNA level expression (qRT-PCR) in 22Rv1: AR-FL; type: cell-based; settings: 22Rv1, 1 μM, 48 h; for mrna remaining at 1 µM: Homo sapiens, normalized to untreated control (vehicle/DMSO)
Method: The prostate cancer cell line 22Rv1 was treated for 48 h with 1 μM Example compound 1, 1/1, 1/2, 2/1, 2/2, 2/3, 2/4, 2/5, 2/6, 2/7, 2/8, 2/9 and 2/10 and the reference compounds SR2211 and XY018 (Nat. Med. 2016; 22:488). RNA was extracted using the RNA isolation kit XS (Macherey-Nagel) and following the manufacture's manual. RNA quantity was measured with the Nanodrop before reverse transcription using Superscript II (Invitrogen #100004925). For the quantitative real-time PCR with SYBR-Green (Qiagen #204074), the following primers were used: AR forward-ACATCAAGGAACTCGATCGTATCATTGC and reverse-TTGGGCACTTGCACAGAGAT, AR-V7: forward-CCATCTTGTCGTCTTCGGAAATGTTATGAAGC and reverse-TTTGAATGAGGCAAGTCAGCCTTTCTT. The qRT-PCR proceeded as follows: denaturation for 5 min 95° C.; 40 cycles of “20 sec at 95° C. and 15 sec at 60° C.” and at the end of the last cycle, the melting temperature of the products was determined by gradually increasing it from 60° C. to 99° C. CT values from all samples were normalized to two different reference (housekeeping) genes using the mean CT value of the GAPDH and YWHAZ (reference genes). Next the values are normalized to the untreated control (vehicle/DMSO).

AR-V7 protein = assay: Androgen receptor protein expression (western blot) in 22Rv1: AR-V7; type: cell-based, human; settings: 22Rv1, 6 μM, 48 h; for AR-V7 protein level: western blot quantification
Method: After 48 h, cell were lysed using cell extraction buffer (Life Technologies #FNN0011) for western blot. […] The membrane is then incubation for 1 hour in blocking buffer (5% milk in 20 mM Tris, 150 mM NaCl, pH 7.5, 0.05% Tween 20 [TBS-T]). After this incubation, the primary antibody is added and incubated overnight at 4° C. After washing, the membrane was incubated with the secondary antibody for 1 h. Visualization of the bands was performed using the femto maximum sensitivity substrate reagent and the luminescence signal recorded with the Fusion FX7 (Vilber). For protein quantification, InageJ was used.

KLK2 mRNA = assay: Expression of AR target genes (qRT-PCR) in 22Rv1: KLK2; type: cell-based; settings: 22Rv1, 1 μM; for mrna remaining at 1 µM: Homo sapiens, 48h, relative to vehicle control (DMSO)
Method: (§4) The prostate cancer cell line 22Rv1 was treated for 48h with 1 μM Example compound 1, 1/1, 2/1, 2/2, 2/3, 2/4, 2/5, 2/6, 2/7, 2/8, 2/9 and 2/10 and reference compounds SR2211 and XY018. RNA was extracted using the RNA isolation kit XS (Macherey-Nagel) and following the manufacture's manual. RNA quantity was measured with the Nanodrop before reverse transcription using Superscript II (Invitrogen #100004925). For the quantitative real-time PCR with SYBR-Green (Qiagen #204074), the following primers were used:
(§5) qRT-PCR was performed using SYBR-Green (Qiagen #204074) reagents in a PCR cycler (Gorbett Research) Rotor Gene RG3000 with the following program: denaturation for 5′ at 95° C.; 40 cycles of 20″ at 95° C. and 15″ at 60° C.″ and at the end of the last cycle, the melting temperature of the products was determined by gradually increasing from 60° C. to 99° C. CT values from all samples were normalized to reference (housekeeping) genes using the mean CT value of the GAPDH and YWHAZ (reference genes). Next the values are put relative to the untreated control (vehicle/DMSO).

CAMKK2 mRNA = assay: Expression of AR target genes (qRT-PCR) in 22Rv1: CAMKK2; type: cell-based; settings: 22Rv1, 1 μM, 48h; relative to vehicle control (DMSO)
Method: as §4, §5

pIC50 (IL-17A) | pIC50 (IFNγ) | GI50 [1] [nM] | GI50 [2] [nM] | GI50 [3] [nM] | full length AR (AR-FL) mRNA expression [5] | SMILES | effect on growth of VCaP [2] | inhibition at 30 µM [4] [%] | growth inhibition [4] | mrna remaining at 1 µM [5] [%] | AR-V7 protein levels (AR-V7 protein) | AR-V7 protein level (AR-V7 protein) | KLK2 mRNA level expression (KLK2 mRNA; 48 h) | mrna remaining at 1 µM (KLK2 mRNA) [%] | CAMKK2 mRNA expression (CAMKK2 mRNA)
> 7.60 | > 7.60 | < 25 | ≥ 5000 | 100 to 5000 | strong reduction | CC(C)(O)CCn1ncc(-c2onc(-c3c(F)cccc3Cl)c2-c2ncccn2)c1C(F)(F)F [2/8] | No effect | 80 | strong growth inhibition | 44.9 | strong reduction | 0.309 | strong inhibition | 60.8 | 1.149
> 7.60 | > 7.60 | < 25 | ≥ 5000 | 25 to 100 | strong reduction | COC(=O)c1c(-c2c(F)cccc2Cl)noc1-c1cnn(-c2cccc(Cl)c2)c1C(F)(F)F [Example 1, Methyl 3-(2-chloro-6-fluorophenyl)-5-(1-(3-chlorophenyl)-5-(trifluoromethyl)-1H-pyrazol-4-yl)isoxazole-4-carboxylate] | No effect | 80 | strong growth inhibition | 44.2 | strong reduction | 0.368 |  | 59.8 | 0.884
> 7.60 | > 7.60 | < 25 | ≥ 5000 | < 25 | strong reduction | Fc1cccc(Cl)c1-c1noc(-c2cnn(-c3cccc(Cl)c3)c2C(F)(F)F)c1-c1nccs1 [Example 1/1] | No effect | 80 | strong growth inhibition | 43.6 | strong reduction | 0.323 |  | 74.2 | 0.883
